Experiments:
Assay in all cases: Post-emergence test on weeds
Format in all cases: in vivo
Set-up in all cases: key: Level 10: completely dead; Level 9: growth control rate greater than or equal to 90% and less than 100%; Level 8: growth control rate greater than or equal to 80% and less than 90%; Level 7: growth control rate greater than or equal to 70% and less than 80%; Level 6: growth control rate greater than or equal to 60% and less than 70%; Level 5: growth control rate greater than or equal to 50% and less than 60%; Level 4: growth control rate greater than or equal to 40% and less than 50%; Level 3: growth control rate greater than or equal to 30% and less than 40%; Level 2: growth control rate greater than or equal to 20% and less than 30%; Level 1: growth control rate less than 20%; Level 0: no effect
Details in all cases: 3 weeks after application, fresh weight control rate
Echinochloa crus-galli = system: Echinochloa crus-galli
Source text: (§1) The activity level criteria for plant damage (i.e., growth control rate) are as follows: • Level 10: completely dead; • Level 9: growth control rate greater than or equal to 90% and less than 100%; • Level 8: growth control rate greater than or equal to 80% and less than 90%; • Level 7: growth control rate greater than or equal to 70% and less than 80%; • Level 6: growth control rate greater than or equal to 60% and less than 70%; • Level 5: growth control rate greater than or equal to 50% and less than 60%; • Level 4: growth control rate greater than or equal to 40% and less than 50%; • Level 3: growth control rate greater than or equal to 30% and less than 40%; • Level 2: growth control rate greater than or equal to 20% and less than 30%; • Level 1: growth control rate less than 20%; • Level 0: no effect.
(§2) The above growth control rates are fresh weight control rates.
(§3) Monocotyledonous and dicotyledonous weed seeds (Descurainia sophia, Capsella bursa-pastoris, Abutilon theophrasti, Galium spurium, Stellaria media, Lithospermum arvense, Rorippa indica, Alopecurus aequalis, Alopecurus japonicus, Eleusine indica, Beckmannia syzigachne, Sclerochloa dura, Erigeron canadensis, Phleum paniculatum, Veronica polita, Bromus japonicus, Aegilops tauschii, Phalaris arundinacea, Amaranthus retroflexus, Chenopodium, Commelina communis, Cichorium endivia, Convolvulus arvensis, Cirsium arvense, Solanum nigrum, Acalypha australis, Digitaria sanguinalis, Echinochloa crus-galli, Setaria viridis, Setaria pumila, Leptochloa chinensis, Monochoria vaginalis, Sagittaria trifolia, Schoenoplectiella juncoides, Cyperus rotundus, Cyperus iria, Cyperus difformis, Fimbristylis, Portulaca oleracea, Xanthium sibiricum, Ipomoea nil, Eschenbachia japonica, etc.) and major crop seeds (wheat, maize, paddy rice, soybean, cotton, oilseed rape, millet, sorghum, potato, sesame, castor plant, etc.) were placed in plastic pots filled with soil and then covered with 0.5-2 cm of soil to allow them to grow in a favorable greenhouse environment. Two weeks after sowing, the test plants were treated at the stage of 2-3 leaves. The test compounds of the present invention were individually dissolved with acetone, then added with Tween® 80, with 1.5 L/ha of methyl oleate emulsifiable concentrate as a synergist, diluted into solutions of certain concentrations using certain amount of water, and sprayed to the plants using a spray tower. After drug application, the experimental results on weeds were collected after 3 weeks of cultivation in a greenhouse. The compounds were applied at 500, 250, 125, 60, 15, and 7.5 g a.i./ha in triplicate, and the results were averaged.

Abutilon theophrasti = system: Abutilon theophrasti
Source text: as §1, §2, §3

Digitaria sanguinalis = system: Digitaria sanguinalis
Source text: as §1, §2, §3

Setaria viridis = system: Setaria viridis
Source text: as §1, §2, §3

Amaranthus retroflexus = system: Amaranthus retroflexus
Source text: as §1, §2, §3

Veronica polita = system: Veronica polita
Source text: as §1, §2, §3

CC1(C(=O)OC2CCCC2)CC(c2cc(-c3ncc(C(F)(F)F)cc3Cl)c(F)cc2Cl)=NO1 (stereo not drawn) [Compound 43]
10: activity level (growth control rate) Echinochloa crus-galli (Echinochloa crus-galli; 15 g a.i./ha) | activity level (growth control rate) Abutilon theophrasti (Abutilon theophrasti; 15 g a.i./ha) | activity level (growth control rate) Digitaria sanguinalis (Digitaria sanguinalis; 15 g a.i./ha) | activity level (growth control rate) Setaria viridis (Setaria viridis; 15 g a.i./ha) | activity level (growth control rate) Amaranthus retroflexus (Amaranthus retroflexus; 15 g a.i./ha) | activity level (growth control rate) Veronica polita (Veronica polita; 15 g a.i./ha)

CC1(C(=O)OCCF)CC(c2cc(-c3ncc(C(F)(F)F)cc3Cl)c(F)cc2Cl)=NO1 (stereo not drawn) [Compound 44]
10: activity level (growth control rate) Echinochloa crus-galli (Echinochloa crus-galli; 15 g a.i./ha) | activity level (growth control rate) Abutilon theophrasti (Abutilon theophrasti; 15 g a.i./ha) | activity level (growth control rate) Digitaria sanguinalis (Digitaria sanguinalis; 15 g a.i./ha) | activity level (growth control rate) Setaria viridis (Setaria viridis; 15 g a.i./ha) | activity level (growth control rate) Amaranthus retroflexus (Amaranthus retroflexus; 15 g a.i./ha) | activity level (growth control rate) Veronica polita (Veronica polita; 15 g a.i./ha)

CC1(C(=O)OCC(F)(F)F)CC(c2cc(-c3ncc(C(F)(F)F)cc3Cl)c(F)cc2Cl)=NO1 (stereo not drawn) [Compound 45]
10: activity level (growth control rate) Echinochloa crus-galli (Echinochloa crus-galli; 60 g a.i./ha) | activity level (growth control rate) Abutilon theophrasti (Abutilon theophrasti; 60 g a.i./ha) | activity level (growth control rate) Digitaria sanguinalis (Digitaria sanguinalis; 60 g a.i./ha) | activity level (growth control rate) Setaria viridis (Setaria viridis; 60 g a.i./ha) | activity level (growth control rate) Amaranthus retroflexus (Amaranthus retroflexus; 60 g a.i./ha) | activity level (growth control rate) Veronica polita (Veronica polita; 60 g a.i./ha)

COCOC(=O)C1(C)CC(c2cc(-c3ncc(C(F)(F)F)cc3Cl)c(F)cc2Cl)=NO1 (stereo not drawn) [Compound 49]
10: activity level (growth control rate) Echinochloa crus-galli (Echinochloa crus-galli; 15 g a.i./ha) | activity level (growth control rate) Abutilon theophrasti (Abutilon theophrasti; 15 g a.i./ha) | activity level (growth control rate) Digitaria sanguinalis (Digitaria sanguinalis; 15 g a.i./ha) | activity level (growth control rate) Setaria viridis (Setaria viridis; 15 g a.i./ha) | activity level (growth control rate) Amaranthus retroflexus (Amaranthus retroflexus; 15 g a.i./ha) | activity level (growth control rate) Veronica polita (Veronica polita; 15 g a.i./ha)

CSCOC(=O)C1(C)CC(c2cc(-c3ncc(C(F)(F)F)cc3Cl)c(F)cc2Cl)=NO1 (stereo not drawn) [Compound 50]
10: activity level (growth control rate) Echinochloa crus-galli (Echinochloa crus-galli; 15 g a.i./ha) | activity level (growth control rate) Abutilon theophrasti (Abutilon theophrasti; 15 g a.i./ha) | activity level (growth control rate) Digitaria sanguinalis (Digitaria sanguinalis; 15 g a.i./ha) | activity level (growth control rate) Setaria viridis (Setaria viridis; 15 g a.i./ha) | activity level (growth control rate) Amaranthus retroflexus (Amaranthus retroflexus; 15 g a.i./ha) | activity level (growth control rate) Veronica polita (Veronica polita; 15 g a.i./ha)

CC(C#N)OC(=O)C1(C)CC(c2cc(-c3ncc(C(F)(F)F)cc3Cl)c(F)cc2Cl)=NO1 (stereo not drawn) [Compound 51]
10: activity level (growth control rate) Echinochloa crus-galli (Echinochloa crus-galli; 15 g a.i./ha) | activity level (growth control rate) Abutilon theophrasti (Abutilon theophrasti; 15 g a.i./ha) | activity level (growth control rate) Digitaria sanguinalis (Digitaria sanguinalis; 15 g a.i./ha) | activity level (growth control rate) Setaria viridis (Setaria viridis; 15 g a.i./ha) | activity level (growth control rate) Amaranthus retroflexus (Amaranthus retroflexus; 15 g a.i./ha) | activity level (growth control rate) Veronica polita (Veronica polita; 15 g a.i./ha)

CC(C)=NOC(=O)C1(C)CC(c2cc(-c3ncc(C(F)(F)F)cc3Cl)c(F)cc2Cl)=NO1 (stereo not drawn) [Compound 65]
10: activity level (growth control rate) Echinochloa crus-galli (Echinochloa crus-galli; 15 g a.i./ha) | activity level (growth control rate) Abutilon theophrasti (Abutilon theophrasti; 15 g a.i./ha) | activity level (growth control rate) Digitaria sanguinalis (Digitaria sanguinalis; 15 g a.i./ha) | activity level (growth control rate) Setaria viridis (Setaria viridis; 15 g a.i./ha) | activity level (growth control rate) Amaranthus retroflexus (Amaranthus retroflexus; 15 g a.i./ha) | activity level (growth control rate) Veronica polita (Veronica polita; 15 g a.i./ha)

C/C(=N\OC(=O)C1(C)CC(c2cc(-c3ncc(C(F)(F)F)cc3Cl)c(F)cc2Cl)=NO1)C(F)(F)F (stereo not drawn) [Compound 67]
10: activity level (growth control rate) Echinochloa crus-galli (Echinochloa crus-galli; 60 g a.i./ha) | activity level (growth control rate) Abutilon theophrasti (Abutilon theophrasti; 60 g a.i./ha) | activity level (growth control rate) Digitaria sanguinalis (Digitaria sanguinalis; 60 g a.i./ha) | activity level (growth control rate) Setaria viridis (Setaria viridis; 60 g a.i./ha) | activity level (growth control rate) Amaranthus retroflexus (Amaranthus retroflexus; 60 g a.i./ha) | activity level (growth control rate) Veronica polita (Veronica polita; 60 g a.i./ha)

COC/C(C)=N/OC(=O)C1(C)CC(c2cc(-c3ncc(C(F)(F)F)cc3Cl)c(F)cc2Cl)=NO1 (stereo not drawn) [Compound 68]
10: activity level (growth control rate) Echinochloa crus-galli (Echinochloa crus-galli; 60 g a.i./ha) | activity level (growth control rate) Abutilon theophrasti (Abutilon theophrasti; 60 g a.i./ha) | activity level (growth control rate) Digitaria sanguinalis (Digitaria sanguinalis; 60 g a.i./ha) | activity level (growth control rate) Setaria viridis (Setaria viridis; 60 g a.i./ha) | activity level (growth control rate) Amaranthus retroflexus (Amaranthus retroflexus; 60 g a.i./ha) | activity level (growth control rate) Veronica polita (Veronica polita; 60 g a.i./ha)

CCO/C(C)=N/OC(=O)C1(C)CC(c2cc(-c3ncc(C(F)(F)F)cc3Cl)c(F)cc2Cl)=NO1 (stereo not drawn) [Compound 69]
10: activity level (growth control rate) Echinochloa crus-galli (Echinochloa crus-galli; 60 g a.i./ha) | activity level (growth control rate) Abutilon theophrasti (Abutilon theophrasti; 60 g a.i./ha) | activity level (growth control rate) Digitaria sanguinalis (Digitaria sanguinalis; 60 g a.i./ha) | activity level (growth control rate) Setaria viridis (Setaria viridis; 60 g a.i./ha) | activity level (growth control rate) Amaranthus retroflexus (Amaranthus retroflexus; 60 g a.i./ha) | activity level (growth control rate) Veronica polita (Veronica polita; 60 g a.i./ha)

CCOC(=O)/C(C)=N/OC(=O)C1(C)CC(c2cc(-c3ncc(C(F)(F)F)cc3Cl)c(F)cc2Cl)=NO1 (stereo not drawn) [Compound 70]
10: activity level (growth control rate) Echinochloa crus-galli (Echinochloa crus-galli; 60 g a.i./ha) | activity level (growth control rate) Abutilon theophrasti (Abutilon theophrasti; 60 g a.i./ha) | activity level (growth control rate) Digitaria sanguinalis (Digitaria sanguinalis; 60 g a.i./ha) | activity level (growth control rate) Setaria viridis (Setaria viridis; 60 g a.i./ha) | activity level (growth control rate) Amaranthus retroflexus (Amaranthus retroflexus; 60 g a.i./ha) | activity level (growth control rate) Veronica polita (Veronica polita; 60 g a.i./ha)

— patent US20250066339A1, “HETEROCYCLE-SUBSTITUTED AROMATIC COMPOUND, METHOD FOR PREPARING SAME, HERBICIDAL COMPOSITION, AND USE THEREOF” (QINGDAO KINGAGROOT CHEMICAL COMPOUND CO., LTD., priority 2022, published 2025)
